Patent US11548925B2, “CACNA1H-derived tumor antigen polypeptide and use thereof” (Genoimmune Therapeutics Co., Ltd., priority 2016, dated 2023)

What was measured:
[1] = system: H2087-TLISSLMPI (SEQ ID NO: 2) subcutaneous tumor; assay: Peptide-specific DC-CTL vaccine in H2087-[…] tumor model; assay type: in vivo, NOD/SCID mice; settings: DC-CTL activated by peptide, tail vein, about 1×10^8 cells; vs wild-type peptide group
Procedure: The human non-small cell lung adenocarcinoma cell line H2087-[…] (SEQ ID NO: 2) as established in Example 7 was cultured in DMEM medium containing 10% fetal bovine serum, 100 U/mL penicillin and 100 U/mL streptomycin in an incubator at 37° C., 5% CO2. H2087-[…] (SEQ ID NO: 2) tumor cells were collected, centrifuged at 1500 rpm for 5 min, and washed 3 times with sterile physiological saline. The tumor cells were diluted appropriately. To 40 μl of cell suspension was added 10 μl of 0.4% […] for staining and microscopically counting cells. A tumor cell suspension at a concentration of 1*10^8 cells/ml was prepared. 100 μl of the tumor cell suspension was inoculated subcutaneously into a NOD/SCID mouse or an immune-reconstituted NOD/SCID mouse. […] The long diameter a and the short diameter b of the tumor were measured with a vernier caliper every 2-3 days and the size of the tumor was calculated as a*b*b/2. The mice and tumors were weighed and recorded every day. […] The tumor volume and the survival rate of mice were recorded every 2 days. […]
The collected PBLs were subjected to magnetic bead sorting to obtain CD8+ T cells, which were sensitized by co-incubation with DCs loaded with the wild-type peptide, DCs loaded with the mutant peptide […] […] The number of lymphocytes was counted and a cell proliferation index (PI) was calculated on days 0, 7, 14, and 21 of culture, respectively. […]

CD8+ T cells [2] = assay: ELISPOTs detection of IFN-γ secretion by peptide-specific CD8+ T cells; assay type: cell-based, human
Source text: In this example, a ELISPOTs detection kit (Cat. No.: 3420-4AST-10, MABTECH) was used to verify the activation of an immune response of CD8+ T cells by the peptides of the present invention.
Principle of the ELISPOTs detection method is as follows: CD8+ T cells can specifically recognize the complex of HLA-A0201 and a peptide. The population of T cells recognizing the complex of the peptide and HLA-A0201 is varying, depending on the peptide sequence. Since T2 cells express HLA-A0201, CD8+ T cells can specifically recognize the T2 cells loaded with a peptide. After specific recognition of the complex of HLA-A0201 and the peptide, peptide-specific CD8+ T cells can be activated again to secrete IFN-γ interferon. The IFN-γ interferon secreted by the activated CD8+ T cells can be captured by antibodies on the ELISPOTs plate. Finally, the enzyme-conjugated antibody that recognizes IFN-γ can degrade the substrate through the enzyme conjugated thereto and develop color, eventually producing spots. The number of spots represents the number of cells that are activated to secrete IFN-γ interferon.
The cultured cells from Example 3 were added, along with T2 cells loaded with the mutant peptide […] (SEQ ID NO: 2) of the present invention and the wild-type peptide […] (SEQ ID NO: 1), respectively, into ELISPOTs plates, and cultured for 20 h, and then a ELISPOTs detection was performed (see the kit instruction). Finally, the spots produced by the ELISPOTs detection were counted.
The peptide was determined to have immunogenicity when the number of spots of the tested peptide/the number of spots of an unrelated peptide>2; that is, if the number of spots caused by the tested peptide is more than twice than that of an unrelated peptide, the tested peptide is determined to have immunogenicity.

T2 cells = assay: LDH release assay, killing of peptide-loaded T2 target cells by CD8+ T cells; assay type: cell-based, human; settings: for Killing efficiency: 4 h
Procedure: The cells cultured in Example 3 were co-cultured with T2 cells loaded with the mutant peptides of the present invention or the wild-type peptide or without a peptide. A maximum release well, a volume correction well, a medium control well, a spontaneous release well and control wells for example at different effector-to-target ratios (ratios of T cells to T2 cells) were set in this experiment. Three replicate wells were set for each group. After 4 h, 50 μl of the co-culture supernatant was taken out and added to 50 μl of LDH substrate mixture to catalyze the reaction of LDH substrate. Finally, the plates were read at a wavelength of 490 nm, with a reference wavelength of 680 nm, and the killing activity against target cells T2 was calculated based on the control wells.
The formula for calculating the killing activity is: Killing efficiency (%)=(test well−spontaneous release of effector cells−spontaneous release of target cells+medium well)/(maximum release of target cells−volume correction well−spontaneous release of target cells+medium well)×100%

CD8+ T cells [3] = assay: ELISPOTs detection of IFN-γ secretion by peptide-specific CD8+ T cells; assay type: cell-based, human; settings: ratio of spot numbers; >2 immunogenic

TLISSLMPI [tumor antigen peptide from CACNA1H mutation, position 1428 arginine to methionine]
Survival period of mice [1]: prolonged the survival period of mice | Tumor-suppressing effect [1]: significant tumor-suppressing effects | Conclusion (immunogenicity) (CD8+ T cells [2]; ELISPOTs): immunogenic | Number of spots in the mutant peptide group (CD8+ T cells [2]; T cells activated by the listed peptide, T2 cells loaded with TLISSLMPI, 20 h): 306 | Number of spots in the wild-type peptide group (CD8+ T cells [2]; T cells activated by the listed peptide, T2 cells loaded with TLISSLRPI, 20 h): 33 | Killing efficiency (T2 cells; effector-to-target ratio 1:1, target T2 loaded with TLISSLMPI): 7.96% | Killing efficiency (T2 cells; effector-to-target ratio 1:1, target T2 loaded with wild-type TLISSLRPI): 2.23% | Killing efficiency (T2 cells; effector-to-target ratio 10:1, target T2 loaded with TLISSLMPI): 38.89% | Killing efficiency (T2 cells; effector-to-target ratio 10:1, target T2 loaded with wild-type TLISSLRPI): 4.23% | Specific killing of target cells (in words) (T2 cells; effector-to-target ratio of 1:1 or 1:10 as printed): capable of killing T2 cells presenting the mutant peptide, but not the T2 cells presenting a wild-type peptide | Fold (tested/wild-type) (CD8+ T cells [3]): 9.27
